In experiment [1] the test system is 3T3-L1. In words: Antiproliferative activity against mouse 3T3L1 cells after 48 hrs by MTT assay. The experiment is classed as functional. Also noted: concentration or dose not given beside the values.
Experiment [2] relates to 3T3-L1. In words: Glucose consumption in differentiated mouse 3T3L1 cells in low-glucose medium at 100 ug/ml after 24 hrs by glucose-oxidase method (Rvb =2.35 +/- 0.19 mmol/L). The experiment is classed as functional.
The test system of experiment [3] is 3T3-L1. As to the kind of experiment: Inhibition of adipogenesis in mouse 3T3L1 cells at 100 umol/L after 8 days by Oil red O-staining. The format is functional. As to conditions: 3T3-L1, 192 h.
The subject of experiment [4] is 3T3-L1. As to the kind of experiment: Glucose consumption in differentiated mouse 3T3L1 cells in high-glucose medium at 100 ug/ml after 24 hrs by glucose-oxidase method (Rvb =3.12 +/- 0.32 mmol/L). The format is functional.
The test system of experiment [5] is 3T3-L1. As to the kind of experiment: Glucose consumption in differentiated mouse 3T3L1 cells in high-glucose medium at 50 ug/ml after 24 hrs by glucose-oxidase method (Rvb =3.06 +/- 0.29 mmol/L). The experiment is classed as functional.
The test system of experiment [6] is 3T3-L1. As to the kind of experiment: Glucose consumption in differentiated mouse 3T3L1 cells in low-glucose medium at 50 ug/ml after 24 hrs by glucose-oxidase method (Rvb =2.41 +/- 0.22 mmol/L). The experiment is classed as functional.
For experiment [7], the system named is 3T3-L1. In words: Glucose consumption in differentiated mouse 3T3L1 cells in low-glucose medium after 24 hrs by glucose-oxidase method. The experiment is classed as functional, cell-based.
The subject of experiment [8] is 3T3-L1. In words: Glucose consumption in differentiated mouse 3T3L1 cells in high-glucose medium after 24 hrs by glucose-oxidase method. The experiment is classed as functional, cell-based.

This note sets out measurements from ChEMBL document CHEMBL1782017, “Synthesis and biological evaluation of new flavonoid fatty acid esters with anti-adipogenic and enhancing glucose consumption activities” (2011).

As to `CCCCCCCC/C=C\CCCCCCCC(=O)Oc1ccc2c(c1)C(=O)/C(=C/c1cccc([N+](=O)[O-])c1)O2`, the Activity in experiment [1] turned out to be 17.55%; in experiment [2], 3.47 mmol/L; in experiment [4], 3.96 mmol/L; in experiment [5], 3.35 mmol/L; in experiment [6], 2.93 mmol/L. Besides, in experiment [3], 100 µM produced 15.6% inhibition.
Take `CCCCCCCC/C=C\CCCCCCCC(=O)Oc1ccc2c(c1)C(=O)/C(=C/c1ccc(F)cc1)O2`: the Activity in experiment [1] is 22.57%; in experiment [2], 4.35 mmol/L; in experiment [4], 4.82 mmol/L; in experiment [7], “Dose-dependent effect”; in experiment [5], 4.07 mmol/L; in experiment [6], 3.81 mmol/L. The Activity entry in experiment [8] is “Dose-dependent effect”. Also, in experiment [3], the inhibition at 100 µM came out at 9.38%.
Consider `C=CCCCCCCCCC(=O)Oc1ccc2c(c1)O/C(=C\c1ccc(OC)cc1)C2=O`, for which, in experiment [1], the Activity is reported as -1.39%.
Regarding `CCCCCCCCCCCCCCCC(=O)Oc1ccc2c(c1)C(=O)/C(=C/c1ccc(OC)cc1)O2`, the Activity in experiment [1] is reported as 1.19%.
As to `CCCCCCCCCCCCCCCC(=O)Oc1ccc2c(c1)C(=O)/C(=C/c1cccc(OC)c1)O2`, the Activity in experiment [1] is -20.26%.
Same read-out and setting: as for `CCCCCCCCCCCCCCCC(=O)Oc1ccc2c(c1)C(=O)/C(=C/c1ccc(OC)c(OC)c1)O2`, the figure is -3.72%; as for `CCCCC/C=C\C=C\CCCCCCCCC(=O)Oc1ccc2c(c1)C(=O)/C(=C/c1cccc(OC)c1)O2`, 6.45%.
`CCCCCCCC/C=C\CCCCCCCC(=O)Oc1ccc2c(c1)C(=O)/C(=C/c1cccc(OC)c1)O2`: the Activity in experiment [1] is listed as -5.41%. In experiment [3], this compound came in with an inhibition at 100 µM of 0%.
Consider `CCCCCCCCCCCCCCCCCC(=O)Oc1ccc2c(c1)C(=O)/C(=C/c1ccc(OC)c(OC)c1)O2`, for which the Activity in experiment [1] is recorded as -3.84%.
For `C=CCCCCCCCCC(=O)Oc1ccc2c(c1)C(=O)/C(=C/c1ccc(F)cc1)O2`, the Activity is 16.67% in experiment [1]; 5.45 mmol/L in experiment [2]; 5.85 mmol/L in experiment [4]; “Dose-dependent effect” in experiment [7]; 5.16 mmol/L in experiment [5]; 4.41 mmol/L in experiment [6]. In addition, the Activity entry in experiment [8] is “Dose-dependent effect”. In experiment [3], this compound returned an inhibition at 100 µM of 25.4%.
As for `CCCCC/C=C\C=C\CCCCCCCCC(=O)Oc1ccc2c(c1)C(=O)/C(=C/c1ccc(F)cc1)O2`, in experiment [1], the Activity is listed as 14.2%. Besides, the inhibition at 100 µM in experiment [3] worked out at 0%.
The like results for `CCCCCCCCCCCCCCCCCC(=O)Oc1ccc2c(c1)O/C(=C\c1ccc(OC)cc1)C2=O` were, in that order, 11.43% and 0%.
Regarding `CCCCCCCCCCCCCCCCCC(=O)Oc1ccc2c(c1)C(=O)/C(=C/c1ccc(F)cc1)O2`, the Activity in experiment [1] is -9.45%.
As for `CCc1ccc(CCOc2ccc(CC3SC(=O)NC3=O)cc2)nc1` (stereo not given) [PIOGLITAZONE], the Activity was 6.75 mmol/L in experiment [2]; 8.15 mmol/L in experiment [4]; “Dose-dependent effect” in experiment [7]; 7.36 mmol/L in experiment [5]; 5.51 mmol/L in experiment [6]; “Dose-dependent effect” in experiment [8].
As to `C=CCCCCCCCCC(=O)Oc1ccc2c(c1)C(=O)/C(=C/c1cccc(OC)c1)O2`, in experiment [1], the Activity is given as 0.21%.
In the case of `CCCCCCCCCCCCCCCCCC(=O)Oc1ccc2c(c1)C(=O)/C(=C/c1cccc(Cl)c1)O2`, the Activity in experiment [1] is listed as -0.06%.
`CCCCCCCC/C=C\CCCCCCCC(=O)Oc1ccc2c(c1)C(=O)/C(=C/c1cccc(Cl)c1)O2`: in experiment [1], the Activity is listed as 20.76%. Moreover, the inhibition at 100 µM in experiment [3] was 0%.
As for `C=CCCCCCCCCC(=O)Oc1ccc2c(c1)C(=O)/C(=C/c1cccc(Cl)c1)O2`, the Activity in experiment [1] was 57.4%; in experiment [2], 3.56 mmol/L; in experiment [4] it was 4.49 mmol/L; in experiment [7] it was “Dose-dependent effect”; in experiment [5], 3.86 mmol/L; in experiment [6] it was 2.88 mmol/L. In addition, the Activity entry in experiment [8] is “Dose-dependent effect”. For the same compound, the inhibition at 100 µM in experiment [3] was 28.7%.
Turning to `C=CCCCCCCCCC(=O)Oc1ccc2c(c1)C(=O)/C(=C/c1ccc(OC)c(OC)c1)O2`, the Activity in experiment [1] is -22.17%.
Turning to `C=CCCCCCCCCC(=O)Oc1ccc2c(c1)C(=O)/C(=C/c1ccc(OC)cc1)O2`, the Activity in experiment [1] is reported as -2.09%.
Consider `CCCCCCCC/C=C\CCCCCCCC(=O)Oc1ccc2c(=O)c(-c3ccc(OC)cc3)coc2c1` [OLEOYL FORMONONETIN], for which the Activity in experiment [1] is 10.91%; in experiment [2], 6.95 mmol/L; in experiment [4], 7.49 mmol/L; in experiment [7], “Dose-dependent effect”; in experiment [5], 6.52 mmol/L; in experiment [6], 5.01 mmol/L. Moreover, in experiment [8], the Activity entry was “Dose-dependent effect”. In experiment [3], this compound yielded an inhibition at 100 µM of 2.52%.
In the case of `CCCCCCCCCCCCCCCCCC(=O)Oc1ccc2c(=O)c(Cc3ccc(OC)cc3)coc2c1`, the Activity in experiment [1] was -31.87%. The inhibition at 100 µM in experiment [3] came out at 1.95%.
For `CCCCC/C=C\C=C\CCCCCCCCC(=O)Oc1ccc2c(c1)C(=O)/C(=C/c1ccc(OC)c(OC)c1)O2`, the Activity is 20.72% in experiment [1]; 3.85 mmol/L in experiment [2]; 5.08 mmol/L in experiment [4]; “Dose-dependent effect” in experiment [7]; 3.71 mmol/L in experiment [5]; 2.99 mmol/L in experiment [6]. For the same compound, the Activity result in experiment [8] is “Dose-dependent effect”. This compound displayed an inhibition at 100 µM in experiment [3] of 1.88%.
In the case of `CCCCCCCC/C=C\CCCCCCCC(=O)Oc1ccc2c(c1)C(=O)/C(=C/c1ccc(Br)cc1)O2`, the Activity in experiment [1] is reported as -6.62%. Further, in experiment [3], testing at 100 µM gave an inhibition of 16.6%.
Consider `CCCCC/C=C\C=C\CCCCCCCCC(=O)Oc1ccc2c(c1)C(=O)/C(=C/c1cccc([N+](=O)[O-])c1)O2`, for which the Activity in experiment [1] is -12.06%; in experiment [2] it was 4.29 mmol/L; in experiment [4], 4.95 mmol/L; in experiment [7] it was “Dose-dependent effect”; in experiment [5] it was 4.21 mmol/L; in experiment [6], 3.64 mmol/L. For the same compound, the Activity entry in experiment [8] is “Dose-dependent effect”. In addition, testing at 100 µM in experiment [3] gave an inhibition of 15.1%.
Turning to `CCCCCCCCCCCCCCCC(=O)Oc1ccc2c(c1)C(=O)/C(=C/c1ccc(F)cc1)O2`, the Activity in experiment [1] is -0.47%.
Still for that read-out and setting: with `CCCCCCCCCCCCCCCCCC(=O)Oc1ccc2c(c1)C(=O)/C(=C/c1ccc(OC)cc1)O2` the figure was -10.93%.
On to `CCCCCCCC/C=C\CCCCCCCC(=O)Oc1ccc2c(c1)C(=O)/C(=C/c1ccc(OC)cc1)O2`, for which the Activity was 17.69% in experiment [1]; 5.05 mmol/L in experiment [2]; 5.67 mmol/L in experiment [4]; “Dose-dependent effect” in experiment [7]; 4.91 mmol/L in experiment [5]; 4.48 mmol/L in experiment [6]. Further, in experiment [8], the Activity entry was “Dose-dependent effect”. Also, in experiment [3], the inhibition at 100 µM came out at 11.7%.
For `CCCCCCCCCCCCCCCC(=O)Oc1ccc2c(c1)C(=O)/C(=C/c1ccc(Br)cc1)O2`, the Activity in experiment [1] is listed as 1.05%.
Regarding `CCCCC/C=C\C=C\CCCCCCCCC(=O)Oc1ccc2c(c1)C(=O)/C(=C/c1cccc(Cl)c1)O2`, the Activity in experiment [1] is -11.46%.
On the same count and under the same terms, with `CCCCC/C=C\C=C\CCCCCCCCC(=O)Oc1ccc2c(=O)c(Cc3ccc(OC)cc3)coc2c1` the figure was -4.37%.
As to `CCCCCCCC/C=C\CCCCCCCC(=O)Oc1ccc2c(c1)C(=O)/C(=C/c1ccc(OC)c(OC)c1)O2`, the Activity in experiment [1] came out at 12.53%. The same compound had an inhibition at 100 µM in experiment [3] of 0%.
For the compound `CCCCCCCCCCCCCCCCCC(=O)Oc1ccc2c(c1)C(=O)/C(=C/c1ccc(Br)cc1)O2`, in experiment [1], the Activity stood at 5.02%.
Still for that read-out and setting: as for `CCCCCCCCCCCCCCCCCC(=O)Oc1ccc2c(c1)C(=O)/C(=C/c1cccc([N+](=O)[O-])c1)O2`, the figure is -5.03%; as for `C=CCCCCCCCCC(=O)Oc1ccc2c(c1)C(=O)/C(=C/c1cccc([N+](=O)[O-])c1)O2`, -8.37%.
As to `CCCCCCCC/C=C\CCCCCCCC(=O)Oc1ccc2c(=O)c(Cc3ccc(OC)cc3)coc2c1`, the Activity in experiment [1] was 1.88%; in experiment [2], 3.38 mmol/L; in experiment [4] it was 4.23 mmol/L; in experiment [7], “Dose-dependent effect”; in experiment [5], 3.49 mmol/L; in experiment [6], 2.71 mmol/L. Also, the Activity entry in experiment [8] is “Dose-dependent effect”. The compound further returned an inhibition at 100 µM in experiment [3] of 47.5%.
As for `CCCCC/C=C\C=C\CCCCCCCCC(=O)Oc1ccc2c(c1)C(=O)/C(=C/c1ccc(Br)cc1)O2`, in experiment [1], the Activity worked out at 11.09%.
Consider `C=CCCCCCCCCC(=O)Oc1ccc2c(=O)c(Cc3ccc(OC)cc3)coc2c1`, for which the Activity in experiment [1] is -17.45%.
Regarding `C=CCCCCCCCCC(=O)Oc1ccc2c(c1)C(=O)/C(=C/c1ccc(Br)cc1)O2`, the Activity in experiment [1] came to 1.25%.
Turning to `CCCCC/C=C\C=C\CCCCCCCCC(=O)Oc1ccc2c(c1)C(=O)/C(=C/c1ccc(OC)cc1)O2`, the Activity in experiment [1] is reported as -24.96%. For the same compound, the inhibition at 100 µM in experiment [3] was 22.6%.
On to `CCCCCCCCCCCCCCCCCC(=O)Oc1ccc2c(c1)C(=O)/C(=C/c1cccc(OC)c1)O2`, for which the Activity in experiment [1] is on record as -10.94%.
